Reference: PMC10069031 (European Journal of Medical Research, 2023)

Tests used:
Type in all cases: in vivo, mouse
[1] = PK of REG in plasma and CT26 tumor tissue; details: after the last dose, CT26 mice
Method: CT26 tumor cells were cultivated in RPMI 1640 with 2 mM L-glutamine (Gibco, Invitrogen GmbH) containing 10% fetal bovine serum (Gibco) at 37 °C and 5% CO2. Cell lines were maintained in culture for no longer than 6 months, and mycoplasma contamination was excluded by enzymatic test (MycoAlert, Lonza) prior to in vivo application. Tumor cells (2 × 10^6) were transplanted subcutaneously into 6- to 8-week-old female BALB/c mice. Control mice were subjected to sham surgery without tumor cell transplantation. Blood and tumor samples were collected from untreated control and tumor-bearing mice on days 4 and 8 (n = 3 mice/group). […] For interim analysis, blood and tumor tissue were collected from each group (n = 3 mice/group) after 7 days of treatment. For pharmacokinetic (PK)/pharmacodynamic (PD) relationship analysis, tissues were taken 24 h after the penultimate dose and 1, 3, 7, and 24 h after the ultimate dose. Tumor diameter was measured by caliper and body weight was determined at least twice weekly. Tumor volume was calculated using the formula 0.5 × a × b^2, where a and b are the long and short diameters of the tumor, respectively.
PK parameters, namely AUC(0–24)ss and Cmax, were calculated from plasma and tumor concentrations using a noncompartmental analysis.

[2] = tested on: CCL2; experiment: CCL2 in blood, MC38 study; details: C57BL/6 mice with subcutaneous MC38 CRC tumors
Method: CCL2 was detected in plasma samples and tumor tissue using the U-Plex mouse MCP-1 ELISA Kit (Meso Scale Diagnostics) according to the manufacturer’s instructions. Measurements were performed at least in duplicate. For plasma, 12.5 µL was analyzed per animal.
Five analysis of variance (ANOVA) models were applied to analyze the log10-transformed values of the tumor weight in the CT26 study, the CCL2 levels in the tumor in the CT26 and MC38 studies, and the CCL2 levels in the PB in the CT26 and MC38 studies. The standard assumption of equal variances between treatment groups was applied for all endpoints, except for CCL2 levels in the tumor in the MC38 study, for which unequal variances between treatment groups were allowed. A negative binomial regression model was applied to evaluate percentages of CD115^hi and F4/80^hi cells within the CD45^+ cell population in PB and tumor tissue, respectively.
In vivo passaging was initiated by transplanting fragments of cryo-preserved MC38 tumors of early passages (<p5) subcutaneously into 6–8-week-old female C57BL/6 mice. Tumors were grown to a size of about 1000 mm^3, excised, cut into fragments edging approximately 2 mm, and used for further passaging in vivo for a maximum of 10 passages. Necrotic areas were removed. […]

[3] = tested on: TAM-associated genes; experiment: qRT-PCR of TAM-associated genes in CT26 tumors; details: REG(V1) vs V1, qRT-PCR
[4] = tested on: CCL2; experiment: CCL2 ELISA in plasma, CT26 study; details: steady-state analysis
Method: (§1) CT26 tumor cells were cultivated in RPMI 1640 with 2 mM L-glutamine (Gibco, Invitrogen GmbH) containing 10% fetal bovine serum (Gibco) at 37 °C and 5% CO2. Cell lines were maintained in culture for no longer than 6 months, and mycoplasma contamination was excluded by enzymatic test (MycoAlert, Lonza) prior to in vivo application. Tumor cells (2 × 10^6) were transplanted subcutaneously into 6- to 8-week-old female BALB/c mice. Control mice were subjected to sham surgery without tumor cell transplantation. Blood and tumor samples were collected from untreated control and tumor-bearing mice on days 4 and 8 (n = 3 mice/group). […] Tumor diameter was measured by caliper and body weight was determined at least twice weekly. Tumor volume was calculated using the formula 0.5 × a × b^2, where a and b are the long and short diameters of the tumor, respectively.
For tissue collection, mice were killed at predetermined time points. […] Tumors were removed, and their weights determined, then divided into three pieces, one of which was snap-frozen, one formalin fixed and paraffin embedded, and one weighed and used for FC analyses.
CCL2 was detected in plasma samples and tumor tissue using the U-Plex mouse MCP-1 ELISA Kit (Meso Scale Diagnostics) according to the manufacturer’s instructions. […] For plasma, 12.5 µL was analyzed per animal. […]

[5] = tested on: CCL2; experiment: CCL2 ELISA in CT26 tumor tissue; details: CT26 tumors
Method: CT26 tumor cells were cultivated in RPMI 1640 with 2 mM L-glutamine (Gibco, Invitrogen GmbH) containing 10% fetal bovine serum (Gibco) at 37 °C and 5% CO2. Cell lines were maintained in culture for no longer than 6 months, and mycoplasma contamination was excluded by enzymatic test (MycoAlert, Lonza) prior to in vivo application. Tumor cells (2 × 10^6) were transplanted subcutaneously into 6- to 8-week-old female BALB/c mice. Control mice were subjected to sham surgery without tumor cell transplantation. Blood and tumor samples were collected from untreated control and tumor-bearing mice on days 4 and 8 (n = 3 mice/group). […] For interim analysis, blood and tumor tissue were collected from each group (n = 3 mice/group) after 7 days of treatment. […] Tumor diameter was measured by caliper and body weight was determined at least twice weekly. Tumor volume was calculated using the formula 0.5 × a × b^2, where a and b are the long and short diameters of the tumor, respectively.
(§2) For tissue collection, mice were killed at predetermined time points. […] Tumors were removed, and their weights determined, then divided into three pieces, one of which was snap-frozen, one formalin fixed and paraffin embedded, and one weighed and used for FC analyses. […]

[6] = tested on: CT26 tumors; experiment: Growth of subcutaneous CT26 tumors in BALB/c mice; details: CRC tumors in mice
Method: as §1, §2
An overall comparison between treatment groups of the endpoints measured on CT26 and MC38 mice after they had been killed was performed using different statistical models. […]

CNC(=O)c1cc(Oc2ccc(NC(=O)Nc3ccc(Cl)c(C(F)(F)F)c3)c(F)c2)ccn1 [REG, Regorafenib]
time of highest concentration of REG (Cmax) in plasma [1]: ≤ 3 h | CCL2 levels in blood [2]: without affecting | transcript frequency of Adgre1 (F4/80) [3]: significantly reduced | transcript frequency of Arg1 [3]: unchanged | transcript frequency of CSF1R [3]: significantly reduced | transcript frequency of Hilpda [3]: unchanged | transcript frequency of Maf [3]: reduced | transcript frequency of MafB [3]: unchanged | transcript frequency of Mgl2 [3]: reduced | transcript frequency of Mrc1 (CD206) [3]: significantly reduced | transcript frequency of Nos2 [3]: unchanged | transcript frequency of VEGFA [3]: unchanged | CCL2 levels in plasma vs vehicle or untreated samples [4]: did not change | CCL2 concentrations in tumor lysates vs vehicle controls [5]: a trend toward higher levels | partial or complete remission [6]: did not induce partial or complete remission | tumor growth vs vehicle [6]: significantly inhibited
